Measured values reported in US12565522B2, “Micropeptide HMMW and application thereof” (NANJING ANJI BIOTECHNOLOGY CO., LTD., priority 2019, dated 2026).
No end group written: not given here.

Legend:
Assay type in all cases: in vivo, BALB/c nude mice
Settings in all cases: for in vivo tumor growth inhibition rate: mouse, 15 mg/kg
[1] = test system: A431 cells of skin cancer
Method: (§1) • (1) Massively culture SCC4 cells of head and neck cancer, SW579 cells of thyroid cancer, A549 cells of lung cancer, TE13 cells of esophageal squamous cell carcinoma, MGC803 cells of stomach cancer, MDA-MB-231 cells of breast cancer, UOK262 cells of kidney cancer, and A431 cells of skin cancer of human, digest with a 0.25% pancreatin solution, centrifuge the cell suspension at 1,000 rpm for 5 min after termination of digestion, re-suspend the cells by serum-free DMEM culture medium, then count the cells and adjust cell concentration to 5×10^7 cells/ml; • (2) Inoculate each nude mouse (female mice at the age of 4-6 weeks and with a weight of 14-16 g were ordered and adaptively reared for 1 week in an SPF animal breeding room) with 100 μl of the cell suspension of the corresponding group in the left armpit, and the number of cells injected is 5×10^6; • (3) After inoculation, the tumor growth at the inoculation sites of nude mice was closely observed. On the 7th day after inoculation, white scabs appeared at the inoculation sites, which could move subcutaneously after being touched. With the growth of tumor tissue, hard tumor masses were gradually formed at the inoculation sites. On about the 14th day, the average volume of the tumor tissue reached 100 mm^3. BALB/c nude mice were randomly divided into three groups (the normal saline group was a blank control group, the micropeptide HMMW at a dose of 10 mg/kg was a low-dose group, and the micropeptide HMMW at a dose of 15 mg/kg was a high-dose group), 6 mice in each group, and the animals weighed 16-18 g at the beginning of administration; • (4) The volume of the transplanted tumor was measured and recorded every two days. The calculation formula of tumor volume (TV) is shown below: TV=0.5×a×b^2 • where, a is the length of the transplanted tumor (mm), and b is the width of the transplanted tumor (mm). • (1) Massively culture SCC4 cells of head and neck cancer, SW579 cells of thyroid cancer, A549 cells of lung cancer, TE13 cells of esophageal squamous cell carcinoma, MGC803 cells of stomach cancer, MDA-MB-231 cells of breast cancer, UOK262 cells of kidney cancer, and A431 cells of skin cancer of human, digest with a 0.25% pancreatin solution, centrifuge the cell suspension at 1,000 rpm for 5 min after termination of digestion, re-suspend the cells by serum-free DMEM culture medium, then count the cells and adjust cell concentration to 5×10^7 cells/ml; • (2) Inoculate each nude mouse (female mice at the age of 4-6 weeks and with a weight of 14-16 g were ordered and adaptively reared for 1 week in an SPF animal breeding room) with 100 μl of the cell suspension of the corresponding group in the left armpit, and the number of cells injected is 5×10^6; • (3) After inoculation, the tumor growth at the inoculation sites of nude mice was closely observed. On the 7th day after inoculation, white scabs appeared at the inoculation sites, which could move subcutaneously after being touched. With the growth of tumor tissue, hard tumor masses were gradually formed at the inoculation sites. On about the 14th day, the average volume of the tumor tissue reached 100 mm^3. BALB/c nude mice were randomly divided into three groups (the normal saline group was a blank control group, and each of micropeptides HMMW I to IX formed a group at a dose of 15 mg/kg), 6 mice in each group, and the animals weighed 16-18 g at the beginning of administration; • (4) The volume of the transplanted tumor was measured and recorded every two days. The calculation formula of tumor volume (TV) is shown below: TV=0.5×a×b^2 • where, a is the length of the transplanted tumor (mm), and b is the width of the transplanted tumor (mm).

[2] = test system: A549 cells of lung cancer
Method: as §1

[3] = test system: MDA-MB-231 cells of breast cancer
Method: as §1

[4] = test system: MGC803 cells of stomach cancer
Method: as §1

[5] = test system: SCC4 cells of head and neck cancer
Method: as §1

[6] = test system: SW579 cells of thyroid cancer
Method: as §1

[7] = test system: TE13 cells of esophageal squamous cell carcinoma
Method: as §1

[8] = test system: UOK262 cells of kidney cancer
Method: as §1

Substance	in vivo tumor growth inhibition rate [1] [%]	in vivo tumor growth inhibition rate [2] [%]	in vivo tumor growth inhibition rate [3] [%]	in vivo tumor growth inhibition rate [4] [%]	in vivo tumor growth inhibition rate [5] [%]	in vivo tumor growth inhibition rate [6] [%]	in vivo tumor growth inhibition rate [7] [%]	in vivo tumor growth inhibition rate [8] [%]	inhibition of tumorigenicity in vivo ([1]; A431, nude mice, 10 and 15 mg/kg, vs normal saline, dose-dependent (Embodiment 6))	inhibition of tumorigenicity in vivo ([2]; A549, nude mice, 10 and 15 mg/kg, vs normal saline, dose-dependent (Embodiment 6))	inhibition of tumorigenicity in vivo ([3]; MDA-MB-231, nude mice, 10 and 15 mg/kg, vs normal saline, dose-dependent (Embodiment 6))	inhibition of tumorigenicity in vivo ([4]; MGC803, nude mice, 10 and 15 mg/kg, vs normal saline, dose-dependent (Embodiment 6))	inhibition of tumorigenicity in vivo ([5]; SCC4, nude mice, 10 and 15 mg/kg, vs normal saline, dose-dependent (Embodiment 6))	inhibition of tumorigenicity in vivo ([6]; SW579, nude mice, 10 and 15 mg/kg, vs normal saline, dose-dependent (Embodiment 6))	inhibition of tumorigenicity in vivo ([7]; TE13, nude mice, 10 and 15 mg/kg, vs normal saline, dose-dependent (Embodiment 6))	inhibition of tumorigenicity in vivo ([8]; UOK262, nude mice, 10 and 15 mg/kg, vs normal saline, dose-dependent (Embodiment 6))
MERAGVPGFSPRRSSVEAKMQSTSCSVRKSSTVTAWPAVVLLLHTSKDDEE-OH [HMMW-II]	71.22	71.32	68.95	70.08	66.24	64.76	62.86	63.12	–	–	–	–	–	–	–	–
MERAGVPGFSPRRSSVEAKMQSTSCSVRKSSTVTAWPAVVLLLSWGKDDEE-OH [HMMW-IV]	71.71	68.25	65.93	67.52	71.72	72.13	61.41	64.70	–	–	–	–	–	–	–	–
MERAGVPGFSPRRSSVEAKMQSTSCSVRKSSTVTAWPAVVLLLSWGQRDEE-OH [HMMW-VI]	68.25	65.27	71.18	66.51	73.54	66.79	65.56	65.19	–	–	–	–	–	–	–	–
MERAGVPGFSPRRSSVEAKMQSTSCSVRKSSTVTAWPAVVLLLSWGQRRGE-OH [HMMW-VIII]	68.21	69.30	69.82	69.38	68.24	71.76	68.81	65.15	–	–	–	–	–	–	–	–
MERAGVPGFSPRRSSVEAKMQSTSCSVRKSSTVTAWPAVVLLLSWGQRRGG-OH [HMMW-I]	62.74	69.23	67.97	68.12	72.56	66.63	65.43	63.80	significantly inhibit	significantly inhibit	significantly inhibit	significantly inhibit	significantly inhibit	significantly inhibit	significantly inhibit	significantly inhibit
MGRAGVPGFSPRRSSVEAKMQSTSCSVRKSSTVTAWPAVVLLLSWGQRRGG-OH [HMMW-IX]	64.33	69.09	69.36	68.61	71.84	67.89	65.31	65.23	–	–	–	–	–	–	–	–
MGSTGVPGFSPRRSSVEAKMQSTSCSVRKSSTVTAWPAVVLLLSWGQRRGG-OH [HMMW-VII]	67.70	69.13	68.91	65.11	72.75	68.63	71.23	64.37	–	–	–	–	–	–	–	–
MGSTYNKRHSPRRSSVEAKMQSTSCSVRKSSTVTAWPAVVLLLSWGQRRGG-OH [HMMW-III]	69.54	73.08	69.49	69.62	70.84	71.89	66.31	61.67	–	–	–	–	–	–	–	–
MGSTYNPGFSPRRSSVEAKMQSTSCSVRKSSTVTAWPAVVLLLSWGQRRGG-OH [HMMW-V]	69.41	71.12	67.75	71.04	67.14	70.78	63.46	64.16	–	–	–	–	–	–	–	–
